# Columns and labels:
# Her-2 in SkBr3 cells = assay: Her-2 depletion in SkBr3 cells as pharmacodynamic marker of cellular efficacy; type: cell-based; conditions: read-out: PD (Her-2 depletion in SkBr3 cells, EC50); SkBr3 cells treated with the inhibitor overnight
# BT474 breast tumor cells = conditions: xenografts bearing BT474 breast tumor cells; cited from earlier work
Structure (SMILES),EC50 (Her-2 in SkBr3 cells) [nM],Effect on tumor in xenografts (BT474 breast tumor cells)
CC1C=CCCOC(=O)c2c(O)cc(O)cc2CC(=NOCC(=O)N2CCCCC2)C=CC1 (stereo not drawn) [Compound A1B4C4D1],≤ 500,–
CC1=CC(=NOCC(=O)N2CCCCC2)Cc2cc(O)cc(O)c2C(=O)OCCC=CCC1 [Compound A1B3C4D1],≤ 500,–
O=C1OCC/C=C/CC/C=C/C(=N/OCC(=O)N2CCCCC2)Cc2c(Cl)c(O)cc(O)c21 [Pochoxime A],–,tumor regression
